{"source": "patent US20100081699A1", "about": "“YEAST PLATFORM CONSTRUCTION AND SCREENING METHODS” (Bioalvo-Servicos ,Investigacao e Desenvolvimento em …, priority 2006, published 2010)", "target": "T1, human IDO (Homo sapiens, UniProt P14902)", "T1 construct": "The IDO gene was obtained from the IMAGE consortium as a 1586 bps fragment cloned in the vector pCMV-SPORT6; expressed in transfected cells", "T1 sequence (P14902 whole entry, the tested form may be a part)": "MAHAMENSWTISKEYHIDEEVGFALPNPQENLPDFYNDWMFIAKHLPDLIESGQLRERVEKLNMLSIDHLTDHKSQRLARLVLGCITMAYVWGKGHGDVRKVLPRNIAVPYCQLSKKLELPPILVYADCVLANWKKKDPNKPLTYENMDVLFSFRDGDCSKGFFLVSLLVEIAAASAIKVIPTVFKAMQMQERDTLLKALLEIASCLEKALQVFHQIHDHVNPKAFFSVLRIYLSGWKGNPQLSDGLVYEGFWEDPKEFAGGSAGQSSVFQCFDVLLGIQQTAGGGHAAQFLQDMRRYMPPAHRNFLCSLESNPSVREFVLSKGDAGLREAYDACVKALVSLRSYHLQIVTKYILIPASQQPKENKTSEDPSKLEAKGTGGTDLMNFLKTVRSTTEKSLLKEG", "assay": "Growth inhibition of BLOCKADE cells with small molecule compounds (life/death screen)", "format": "cell-based", "details": "S. cerevisiae BLOCKADE cells, minimum medium with 2% galactose, 10, 5, 2.5 and 1 μM compound, 3 days at 30° C.; WT cells at 10 μM as cytotoxicity control", "method": "Cells were pre-grown on a mixture of 1.2% glucose and 0.8% galactose until reaching early exponential phase (OD=1-2). The cells were washed three times with water and then resuspended in fresh selective medium containing 2% galactose, in order to fully activate IDO expression. Cells were dispensed into 96-well plates and inhibitor compounds were added to the cell culture at concentrations of 10, 5, 2.5 and 1 μM. Growth was monitored during 3 days at 30° C. under agitation. Compounds were selected from diverse libraries.\nIDO inhibitory compounds were identified as those that repressed the growth of the cells. Possible cytotoxic effects of the compounds were identified by growing the wild type strain in the same condition at a concentration of 10 μM. Compounds inhibiting both BLOCKADE cells and wild type strains were considered as cytotoxic and therefore not selected for further development. Compounds inhibiting only BLOCKADE cells, but not the wild type strains were considered as hits, potential IDO inhibitory compounds."}
{"smiles": "O=C(O)CCn1c2ccc(Br)cc2c2cc(Br)ccc21", "note": "[BLK200769]", "values": [{"measurement": "Inhibition of growth of BLOCKADE cells", "value": "inhibition"}]}
